This data set is described as follows: acute toxicity test on mice. To be noted: mouse, in vivo, other: injected, injected as emulsion of example 1 composition, observation time 72 hours, expressed for perfluorodecalin. The method, then: An emulsion of the same composition and prepared in the same way as in example 1 was tested on mice for acute toxicity. Observation time was 72 hours.
It appears that the acute toxicity (LD₅₀) will be just below 30 g/kg for perfluorodecalin. Owing to the great volumes that were injected, it cannot be excluded that changes in liquid and electrolyte balance have affected the results and that, therefore, an examination of this kind not solely reflects the toxicity of the fluorocarbon compound; however, the indicated value of 30 g/kg is of such a magnitude that the preparation can be regarded as non-toxic.

As for `FC1(F)C(F)(F)C(F)(F)C2(F)C(F)(F)C(F)(F)C(F)(F)C(F)(F)C2(F)C1(F)F` (stereo not shown) [perfluorodecalin], the LD50 at 72 h is less than 30000 mg/kg.

Usually LD50 stands for the dose at which mortality reaches 50%. A low value points to a more toxic substance.

Values taken from patent publication EP0220153B1, “A nutritive emulsion having oxygen-transporting properties, and process for its preparation” (Kabi Pharmacia AB, priority 1985, dated 1987).
